Experimental data reported in the Deep4Chem optical property database.
Values belong to the molecule of their own block, whether it stands above or below them.

Assay: solvent given as SMILES

Structure (SMILES): CCN1c2ccc(/C=N/Nc3ccccn3)cc2Sc2cc(-c3ccccc3)ccc21
emission maximum (in C1CCOC1): 487 nm | emission maximum (in CS(C)=O): 503 nm | emission maximum (in Cc1ccccc1): 485 nm | emission maximum (in ClCCl): 497 nm

Structure (SMILES): CN(C)c1ccc(C#Cc2cc(C#Cc3ccc(C(F)(F)F)cc3)c3ccc4c(C#Cc5ccc(N(C)C)cc5)cc(C#Cc5ccc(C(F)(F)F)cc5)c5ccc2c3c45)cc1
emission maximum (in ClCCl): 605 nm

Structure (SMILES): c1ccc2c(c1)Sc1ccccc1N2c1ccc2c(c1)C1(CCCC1)c1cc(N3c4ccccc4Sc4ccccc43)ccc1-2
emission maximum (in Cc1ccccc1): 491 nm

Structure (SMILES): CC[N+]1(CC)CN2C(C)=CC(C)=C(C(=O)[O-])C2=N1
emission maximum (in CN(C)C=O): 453 nm | emission maximum (in O): 449 nm

Structure (SMILES): C[SiH](C)c1cccc2ccccc12
emission maximum (in C1CCCCC1): 328 nm

Structure (SMILES): CC1(C)C2=C(c3ccccc31)S(=O)(=O)c1ccccc12
emission maximum (in ClCCl): 444 nm

Structure (SMILES): c1cc2ccc3sc4ccc5cccc6c(c1)c2c3c4c56
emission maximum (in ClC(Cl)Cl): 418 nm

Structure (SMILES): CN(C)c1ccc(-n2c(-c3ccncc3)nc3ccccc32)cc1
emission maximum (in CC#N): 556 nm

Structure (SMILES): Cc1ccc(C#Cc2ccc(C#Cc3ccc(C#Cc4ccccc4C#N)cc3C#N)cc2C#N)cc1
emission maximum (in ClC(Cl)Cl): 403 nm

Structure (SMILES): Nc1cc2nc3cc(Cl)c(Cl)cc3nc2cc1N
emission maximum (in CCO): 549 nm

Structure (SMILES): CC(C)[Si](C#Cc1ccc(C#C[Si](C(C)C)(C(C)C)C(C)C)c2nc3c(nc12)Cc1ccccc1-3)(C(C)C)C(C)C
emission maximum (in CCCCCC): 430 nm

Structure (SMILES): COC1=[N+]2C(=C(c3ccccc3)c3ccc(OC)n3[B-]2(F)F)C=C1SC#N
emission maximum (in CC#N): 539 nm | emission maximum (in CCCCCC): 542 nm | emission maximum (in CCOC(C)=O): 543 nm | emission maximum (in CO): 540 nm | emission maximum (in ClCCl): 543 nm

Structure (SMILES): Cc1cc(C)c(B(c2ccc(N3c4ccccc4C(C)(C)c4ccccc43)cc2)c2c(C)cc(C)cc2C)c(C)c1
emission maximum (in C1CCCCC1): 442 nm | emission maximum (in C1CCOC1): 530 nm | emission maximum (in CN(C)C=O): 578.72 nm | emission maximum (in Cc1ccccc1): 484 nm | emission maximum (in ClCCl): 540.77 nm

Structure (SMILES): N#CC(C#N)=C(c1ccc(N(c2ccccc2)c2ccccc2)cc1)c1ccc(N(c2ccccc2)c2ccccc2)cc1
emission maximum (in C1CCCCC1): 413.3 nm | emission maximum (in CC(C)=O): 505.58 nm | emission maximum (in CN(C)C=O): 515.24 nm | emission maximum (in Cc1ccccc1): 439.48 nm | emission maximum (in ClC(Cl)Cl): 491.2 nm

Structure (SMILES): CN(C)c1ccc(/C=C/C(=O)c2ccc(Cl)cc2)cc1
emission maximum (in C1CCOC1): 516 nm | emission maximum (in CC#N): 540 nm | emission maximum (in CC(=O)O): 521 nm | emission maximum (in CC(C)=O): 532 nm | emission maximum (in CCO): 542 nm | emission maximum (in CN(C)C=O): 542 nm | emission maximum (in CO): 544 nm | emission maximum (in Cc1ccccc1): 486 nm | emission maximum (in ClC(Cl)Cl): 522 nm | emission maximum (in c1ccccc1): 488 nm

Structure (SMILES): Cc1cc(-c2ccccc2C)cc(C)[o+]1
emission maximum (in CC#N): 518 nm | emission maximum (in ClCCl): 469 nm

Structure (SMILES): CCCCCCCCOC(=O)c1ccc(-c2cc3ccc4cc(-c5ccc(C(=O)OCCCCCCCC)cc5)cc5ccc(c2)c3c45)cc1
emission maximum (in Cc1ccccc1): 421 nm

Structure (SMILES): CC1(C)CC(=O)c2ccccc2N1
emission maximum (in CC#N): 439 nm | emission maximum (in CCO): 483 nm

Structure (SMILES): O=C(Cc1ccccc1)OCc1ccc2c3cccc4cccc(c5cccc1c52)c43
emission maximum (in CCO): 445 nm

Structure (SMILES): N#Cc1cccc2ccccc12
emission maximum (in Cc1ccccc1): 341.02 nm

Structure (SMILES): CCCCCCOc1ccc(C#Cc2ccc(C#Cc3ccc(OCCCCCC)c(OCCCCCC)c3)c3nsnc23)cc1OCCCCCC
emission maximum (in C1CCCCC1): 504 nm | emission maximum (in CCOC(C)=O): 550 nm | emission maximum (in CN(C)C=O): 600 nm | emission maximum (in COc1ccccc1): 561 nm | emission maximum (in Cc1ccccc1): 537 nm | emission maximum (in ClC(Cl)Cl): 580 nm | emission maximum (in ClCCCl): 581 nm | emission maximum (in ClCCl): 577 nm

Structure (SMILES): Cc1cc(C)c2c(c1)nc1c(=O)n(C)c(=O)nc-1n2C
emission maximum (in CC#N): 552 nm

Structure (SMILES): CCN1\C(=C/C=C/C=C/C2=[N+](CC)c3ccc4ccccc4c3C2(C)C)C(C)(C)c2c1ccc1ccccc21
emission maximum (in C1CCOC1): 707 nm | emission maximum (in CC#N): 695 nm | emission maximum (in CC(C)=O): 698 nm | emission maximum (in CCO): 702 nm | emission maximum (in CN(C)C=O): 702 nm | emission maximum (in CO): 698 nm | emission maximum (in CS(C)=O): 705 nm | emission maximum (in ClCCl): 710 nm

Structure (SMILES): Cc1ccc(-c2nc(-c3ccc(O)cc3)[nH]c2-c2ccc(C)cc2)cc1
emission maximum (in CO): 395 nm

Structure (SMILES): CCN1/C(=C\c2c(-c3ccc(N(C)C)cc3)c(=O)c2=O)C=Cc2ccccc21
emission maximum (in C1CCCCC1): 427 nm | emission maximum (in Cc1ccccc1): 434 nm | emission maximum (in ClCCl): 588 nm

Structure (SMILES): O=P1(c2ccccc2)c2cccc3ccc4ccc1n4c23 (stereo not given)
emission maximum (in ClCCl): 496 nm

Structure (SMILES): C(=C\c1ccc(-n2c3ccccc3c3ccccc32)cc1)/c1ccc(-c2ccc(/C=C/c3ccc(-n4c5ccccc5c5ccccc54)cc3)cc2)cc1
emission maximum (in Cc1ccccc1): 420 nm | emission maximum (in c1ccc2c(c1)c1ccccc1n2-c1ccc(-c2ccc(-n3c4ccccc4c4ccccc43)cc2)cc1): 438 nm

Structure (SMILES): CN(C)c1ccc(C2=Nc3scc(-c4ccc(N(C)C)cc4)[n+]3[B-](F)(F)O2)cc1
emission maximum (in C1CCOC1): 616 nm | emission maximum (in Cc1ccccc1): 518 nm | emission maximum (in ClCCl): 590 nm

Structure (SMILES): COc1ccc(-c2ccc(-c3ccc(OC)cc3)c3nc(-c4ccccc4)c(-c4ccccc4)nc23)cc1
emission maximum (in C1CCOC1): 504 nm | emission maximum (in CC#N): 512 nm | emission maximum (in CCCCCC): 477 nm | emission maximum (in CN(C)C=O): 514 nm | emission maximum (in Cc1ccccc1): 492 nm | emission maximum (in ClC(Cl)Cl): 502 nm

Structure (SMILES): CCn1c2ccccc2c2cc(-c3cc(-c4ccc5c(c4)c4ccccc4n5CC)nc(-c4ccccc4)n3)ccc21
emission maximum (in C1CCOC1): 391 nm | emission maximum (in CCOC(C)=O): 389 nm | emission maximum (in CN(C)C=O): 415 nm | emission maximum (in Cc1ccccc1): 380 nm | emission maximum (in ClCCl): 405 nm

Structure (SMILES): Cn1nc(-c2ccccc2)cc1-c1ccccc1
emission maximum (in ClCCl): 338 nm

Structure (SMILES): CCN(CC)c1ccc(-n2cccc2)cc1
emission maximum (in CC#N): 337 nm | emission maximum (in CCCCCC): 326 nm

Structure (SMILES): c1ccc(-c2nnc(-c3ccccc3)n2-c2ccc(N3c4ccccc4N(c4ccccc4)c4ccccc43)cc2)cc1
emission maximum (in Cc1ccccc1): 495 nm | emission maximum (in c1cc(-n2c3ccccc3c3ccccc32)cc(-n2c3ccccc3c3ccccc32)c1): 474 nm

Structure (SMILES): c1cncc(-c2ccc(-c3c4ccccc4c(-c4ccc(-c5cccnc5)cc4)c4ccccc34)cc2)c1
emission maximum (in ClCCl): 426 nm

Structure (SMILES): Clc1ccc(-c2c3nc(c(-c4ccc(Cl)cc4)c4ccc([nH]4)c(-c4ccc(Cl)cc4)c4nc(c(-c5ccc(Cl)cc5)c5ccc2[nH]5)C=C4N2CCOCC2)C=C3)cc1
emission maximum (in CS(C)=O): 662 nm

Structure (SMILES): Cc1cc(=O)oc2c1cc(Br)c1occ(C)c12
emission maximum (in C1CCCCC1): 400 nm | emission maximum (in C1COCCO1): 407 nm | emission maximum (in CC#N): 413 nm | emission maximum (in CCO): 416 nm | emission maximum (in OCC(F)(F)F): 426 nm

Structure (SMILES): O=C(c1ccc2c3c(cccc13)-c1cccc3c1C2CC=C3)c1c(CCc2ccccc2)c2ccc3cccc4c5cccc6ccc1c(c65)c2c34 (stereo not given)
emission maximum (in ClCCl): 527 nm

Structure (SMILES): FC(F)(F)c1ccc(-c2pc3ccccc3s2)cc1 (stereo not given)
emission maximum (in CC#N): 430 nm

Structure (SMILES): CCCCCCc1ccc(-n2c3[n+](c4c5ccccc5c5ccccc5c42)[B-](C)(C)c2cc(-n4c5ccccc5c5ccccc54)ccc2-3)cc1
emission maximum (in C1CCOC1): 409 nm | emission maximum (in CC#N): 409 nm | emission maximum (in Cc1ccccc1): 410 nm | emission maximum (in ClCCl): 408 nm

Results, then the molecule that gave them:

emission maximum (in CC#N): 629 nm
Structure (SMILES): CC1=CC(/C=C/c2ccc([N+](C)(C)C)cc2)=[N+]2C1=C(c1ccc(C#CCO[C@@H]3O[C@H](CO)[C@@H](O)C(O)[C@H]3O)cc1)c1c(C)cc(/C=C/c3ccc([N+](C)(C)C)cc3)n1[B-]2(F)F (stereo not given in full)

emission maximum (in CC#N): 488 nm | emission maximum (in ClCCl): 487 nm
Structure (SMILES): COc1ccc(/C=C/C(=O)c2c(O)cc(C)oc2=O)cc1

emission maximum (in C1CCOC1): 707 nm
Structure (SMILES): O=C1/C(=C2\Nc3cc4ccc5cccc6ccc(c3C2=O)c4c56)Nc2cc3ccc4cccc5ccc(c21)c3c45

emission maximum (in CCOC(C)=O): 476 nm
Structure (SMILES): CCn1c2ccccc2c2c(C#N)c3c(ccc4c3cnn4C)nc21

emission maximum (in ClC(Cl)Cl): 482 nm
Structure (SMILES): CCCCCCN1C(=O)c2cccc3c(-c4ccc(C)s4)ccc(c23)C1=O

emission maximum (in ClCCl): 752 nm
Structure (SMILES): CCCCCCOc1ccc(N(c2ccc(OCCCCCC)cc2)c2ccc(-c3sc(-c4ccc(N(c5ccc(OCCCCCC)cc5)c5ccc(OCCCCCC)cc5)cc4)c4nc(-c5ccc(OC)cc5)c(-c5ccc(OC)cc5)nc34)cc2)cc1

emission maximum (in CS(C)=O): 570 nm
Structure (SMILES): C[N+]1=C(/C=C/C=C2/N(CCC[N+](C)(C)C)c3ccc(S(=O)(=O)[O-])cc3C2(C)C)C(C)(C)c2ccccc21

emission maximum (in CC#N): 590 nm
Structure (SMILES): CCCn1c2cccc3oc4cccc5c4[c+](c32)c2c1cccc2n5CCC

emission maximum (in ClC(Cl)Cl): 570 nm
Structure (SMILES): N#Cc1nc(N(Cc2ccccc2F)Cc2ccccc2F)c(C#N)nc1N(Cc1ccccc1F)Cc1ccccc1F

emission maximum (in CCO): 470 nm | emission maximum (in ClCCl): 460 nm
Structure (SMILES): CCN(CC)c1ccc2cc(C#N)/c(=N\C(=O)C(C)C)oc2c1

emission maximum (in ClCCl): 424 nm
Structure (SMILES): COc1ccc(-c2ccc3c(c2)[Si](C)(C)c2cc(-c4ccc(OC)cc4)ccc2C=C3)cc1

emission maximum (in ClC(Cl)Cl): 613 nm
Structure (SMILES): CCCCCCCCCCOc1ccc2cc(C3=C4C(=O)N(CC(OCC)OCC)C(c5cc6ccc(OCCCCCCCCCC)cc6o5)=C4C(=O)N3CC(OCC)OCC)oc2c1

emission maximum (in C1COCCO1): 484 nm | emission maximum (in CC#N): 502 nm | emission maximum (in ClCCl): 490 nm
Structure (SMILES): CCCn1c(=O)c(/C=C/c2nc3ccc(C)cc3n(CCC)c2=O)nc2ccc(C)cc21

emission maximum (in O): 663 nm
Structure (SMILES): COc1ccccc1C1=C2C=CC(=[N+](C)C)C=C2[Si](C)(C)c2cc(N(C)C)ccc21

emission maximum (in CO): 583 nm
Structure (SMILES): COc1ccc2[nH]cc(/C=C/C3=[NH+]c4cccc5cccc3c45)c2c1

emission maximum (in ClCCl): 680 nm
Structure (SMILES): CCCC1=Cc2nc1ccc1[nH]c(cc1CCC)c1nc(c(NC(=O)CCCC(=O)O)cc3[nH]c2cc3CCC)C(CCC)=C1

emission maximum (in ClCCl): 478 nm
Structure (SMILES): Cc1c(C(=O)c2ccccc2)c2ccc3cccc4c5cccc6ccc1c(c65)c2c34

emission maximum (in CC#N): 405 nm | emission maximum (in CC(C)O): 408 nm | emission maximum (in CCO): 409 nm | emission maximum (in CO): 409 nm | emission maximum (in ClC(Cl)Cl): 406 nm | emission maximum (in ClCCl): 405 nm
Structure (SMILES): Cc1ccc2cc3c(=O)n(C)c(=O)n(C)c3nc2c1

emission maximum (in CC#N): 400 nm | emission maximum (in CCO): 371 nm | emission maximum (in CCOC(C)=O): 383 nm | emission maximum (in CO): 377 nm | emission maximum (in ClC(Cl)Cl): 374 nm
Structure (SMILES): Nc1ncnc2c1c(C#Cc1ccc3ccccc3c1)cn2[C@H]1C[C@H](O)[C@@H](CO)O1
